In patent US10837044B2, “Automated method for analyzing and interpreting an antimicrobial susceptibility” (FONDATION MEDITERRANEE INFECTION, priority 2014, dated 2020):

Key:
Staphylococcus aureus = assay: antibiogram by diffusion on Mueller-Hinton agar with antibiotic wafers; assay type: cell-based; conditions: for resistant (I/R) or sensitive (S): Table C2, sixteen wafers, square dish
Procedure: (§1) The inoculum was prepared by making a suspension of bacteria directly from colonies put into solution in tubes of sterile water so that the solution presented accurate opacity as determined with a spectrophotometer equivalent to the opacity of a 0.5 standard in the McFarland range. This bacterial suspension concentration is standardized since a more concentrated inoculum would lead to smaller diameters for the inhibition zone, and vice versa.
(§2) The inoculum corresponds to concentrations of about 10^8 CFU/mL for Escherichia coli, Klebsiella pneumoniae, Proteus mirabilis, Klebsiella oxytoca, Enterobacter cloacea, Enterobacter aerogenes, Entercoccus faecalis, Pseudomonas aeruginosa, Staphylococcus aureus, and Staphylococcus epidermidis. These are the ten species bacteria that are encountered the most frequently in human pathologies.
(§3) 1.2) The bacterial sample was deposited on a solid culture medium in a petri dish having a diameter of 90 mm or in a square dish having a side of 120 mm, the medium being constituted by a Mueller-Hinton agar specific for (EUCAST) antibiograms. Ideally, it should be used in the 15 minutes (min) following preparation of the suspension.
(§4) Seeding was done by the method of diffusion on an agar medium by flooding in which excess bacterial suspension was added to the Mueller-Hinton agar. After homogenizing, excess liquid was discarded in order to avoid over-inoculating the dishes. It is necessary to wait beforehand for the surface of the agar to be dry in order to eliminate any trace of moisture encouraging bacterial invasion.
(§5) The disks of the antibiotic wafers were deposited within 15 min after inoculating the agar. The antibiotic impregnated disks were deposited using an automatic dispenser that placed the disks firmly on the surface of the inoculated and dried agar. The number of disks deposited per dish was limited because of inhibition zone overlap and in order to limit interference between antibiotics. It is important for the inhibition diameters to be measurable. The antibiograms were then incubated at 37° C. for 18 hours (h) to 24 h.
(§6) The antibiotic wafers were made of high quality absorbent paper with a diameter of 6 mm and they were impregnated with antibiotics at concentrations in the range 1 micrograms (μg) to 300 μg approximately, depending on the antibiotic.
(§7) In the examples below, reference disks were used as sold by the suppliers i2a (Montpellier, France), BD (Becton Dickinson, USA), Bio-Rad (Hercules, USA), Biomerieux (Marcy l′Etoile, France) containing the following antibiotics and carrying the following codes and the following doses: AMX (amoxicillin) 25 μg: AMC (amoxicillin-clavulanic acid) 20 μg-10 μg; GM for gentamicin, 15 μg; SXT (trimethoprim-sulfamethoxazole) 1.25/23.75 μg; TIC (ticarcillin) 75 μg; TCC (ticarcillin-clavulanic acid) […]; TZP (piperacillin-tazobactam) 75/10 μg; CAZ (ceftazidime) 30 μg; IMP or IPM (imipeneme) 10 μg; COL (colistin) 50 μg; FOX (cefoxitine) 30 μg; VAN (vancomycin) 30 μg; TEC (teicoplanin) 30 μg; CLI or DA (clindamycin) 2 μg; CRO (ceftriaxone) 30 μg; CIP (ciprofloxacin) 5 μg; OFX (ofloxacin) 5 μg; CTX (cefotaxime) 5 μg; AN or AK (amikacin) 30 μg; TM (tobramycin) 10 μg; FOX (cefoxitine) 30 μg; ATM (aztreonam) 30 μg; ERT (ertapenem) 10 μg; FF (fosfomycin) 200 μg; DO (doxycycline) 30 μg; K (kanamycin) 1000 μg; L (lincomycin) 15 μs; LNZ (linezolid) 10 μg; AN (nalidixic acid) 30 μg; NOR (norfloxacin) 10 μg; PT (pristinamycin) 15 μg; RA (rifampicin) 5 μg; and E (erythromycin) 15 μg.

[1] = system: Staphylococcus epidermidis; assay: as above; assay type: cell-based; conditions: Table C1; S. epidermidis phenotype Wild; six wafers, disk loads of Table B
Procedure: as §1, §2, §3, §4, §5, §6, §7

Escherichia coli [2] = conditions: cited from earlier work; for Critical diameters (mm) R> / Critical diameters (mm) S≤: disk load 10 μg, inhibition zone diameter; for Critical diameters (mm) R> / Critical concentrations (mg/L) R>: resistant; for Critical diameters (mm) S≤ / Critical concentrations (mg/L) S≤: sensitive; for Critical concentrations (mg/L) R>: high critical concentration; for Critical concentrations (mg/L) S≤: low critical concentration
Entercoccus faecalis = assay: antibiogram by diffusion on Mueller-Hinton agar with antibiotic wafers; assay type: cell-based; conditions: Table C1, six wafers, disk loads of Table B
Procedure: as §1, §2, §3, §4, §5, §6, §7

Pseudomonas aeruginosa = assay: as above; assay type: cell-based; conditions: Table C1, six wafers, disk loads of Table B
Procedure: as §1, §2, §3, §4, §5, §6, §7

Escherichia coli [3] = assay: as above; assay type: cell-based; conditions: for resistance (I, R) or sensitivity (S): Table C1, disk loads of Table B; for resistant (I/R) or sensitive (S): Table C2, square dish
Procedure: as §1, §2, §3, §4, §5, §6, §7

Proteus mirabilis = assay: as above; assay type: cell-based; conditions: Table C1, six wafers, disk loads of Table B
Procedure: as §1, §2, §3, §4, §5, §6, §7

Klebsiella pneumoniae = assay: as above; assay type: cell-based; conditions: Table C2, sixteen wafers, square dish
Procedure: as §1, §2, §3, §4, §5, §6, §7

[4] = S. aureus phenotype R to methicilline, R to aminosides, fluoroquinolones, to rifampicie, to macrolides and the like
[5] = P. aeruginosa Abnormal phenotype
[6] = P. aeruginosa phenotype Carbapenemase
[7] = P. aeruginosa phenotype Penicillinase
[8] = P. aeruginosa phenotype Selective imipenem permeability
[9] = E. coli phenotype Cephalosporinase + R to fluoroquinolones + R to cotrimoxazole + partial R to aminosides, sixteen wafers
[10] = E. coli phenotype Hl penicillinase + R to fluoroquinolones + R to cotrimoxazole + partial R to aminosides, sixteen wafers
[11] = E. coli phenotype Wild, sixteen wafers in a rectangular grid
[12] = K. pneumoniae phenotype Cephalosporinase + R to aminosides + R to cotrimoxazole

CCC[C@@H]1C[C@@H](C(=O)N[C@@H]([C@H]2O[C@H](SC)[C@H](O)[C@@H](O)[C@H]2O)[C@H](C)Cl)N(C)C1 [CLI, clindamycin]
resistance (I, R) or sensitivity (S) (Staphylococcus aureus; Table C1, S. aureus phenotype Wild, six wafers, disk loads of Table B): S
resistant (I/R) or sensitive (S) (Staphylococcus aureus; [4]): R
resistant (I/R) or sensitive (S) (Staphylococcus aureus; S. aureus phenotype Wild): S
resistance (I, R) or sensitivity (S) [1]: S

C[C@@H](O)[C@H]1C(=O)N2C(C(=O)O)=C(S[C@@H]3CN[C@H](C(=O)Nc4cccc(C(=O)O)c4)C3)[C@H](C)[C@H]12 [Ertapenem]
Critical diameters (mm) R> (Escherichia coli [2]): 22 mm
Critical diameters (mm) S≤ (Escherichia coli [2]): 25 mm
Critical concentrations (mg/L) R> (Escherichia coli [2]): 1 mg/L
Critical concentrations (mg/L) S≤ (Escherichia coli [2]): 0.5 mg/L

CCC[C@@H]1C[C@@H](C(=O)N[C@@H]([C@H]2O[C@H](SC)[C@H](O)[C@@H](O)[C@H]2O)[C@@H](C)O)N(C)C1 [LIN, lincomycin]
resistance (I, R) or sensitivity (S) (Entercoccus faecalis; E. faecalis phenotype Atypical): S
resistance (I, R) or sensitivity (S) (Entercoccus faecalis; E. faecalis phenotype Wild): S

O=C1CN(/N=C/c2ccc([N+](=O)[O-])o2)C(=O)N1 [FUR, nitrofurantoin]
resistance (I, R) or sensitivity (S) (Entercoccus faecalis; E. faecalis phenotype Atypical): S
resistance (I, R) or sensitivity (S) (Entercoccus faecalis; E. faecalis phenotype Wild): S
resistant (I/R) or sensitive (S) (Staphylococcus aureus; [4]): R
resistant (I/R) or sensitive (S) (Staphylococcus aureus; S. aureus phenotype Wild): S

CC(C)(O/N=C(\C(=O)N[C@@H]1C(=O)N2C(C(=O)[O-])=C(C[n+]3ccccc3)CS[C@H]12)c1csc(N)n1)C(=O)O [CAZ, ceftazidime]
resistance (I, R) or sensitivity (S) (Pseudomonas aeruginosa; [5]): S
resistance (I, R) or sensitivity (S) (Pseudomonas aeruginosa; P. aeruginosa phenotype BSBL): R
resistance (I, R) or sensitivity (S) (Pseudomonas aeruginosa; [6]): R
resistance (I, R) or sensitivity (S) (Pseudomonas aeruginosa; [7]): S
resistance (I, R) or sensitivity (S) (Pseudomonas aeruginosa; [8]): S
resistance (I, R) or sensitivity (S) (Pseudomonas aeruginosa; P. aeruginosa phenotype Wild): S

C[C@@H](O)[C@H]1C(=O)N2C(C(=O)O)=C(S[C@@H]3CN[C@H](C(=O)N(C)C)C3)[C@H](C)[C@H]12 [Meopenem]
Critical diameters (mm) R> (Escherichia coli [2]): 16 mm
Critical diameters (mm) S≤ (Escherichia coli [2]): 22 mm
Critical concentrations (mg/L) R> (Escherichia coli [2]): 8 mg/L
Critical concentrations (mg/L) S≤ (Escherichia coli [2]): 2 mg/L

C[C@@H](O)[C@H]1C(=O)N2C(C(=O)O)=C(S[C@@H]3CN[C@H](CNS(N)(=O)=O)C3)[C@H](C)[C@H]12 [Doripenem]
Critical diameters (mm) R> (Escherichia coli [2]): 21 mm
Critical diameters (mm) S≤ (Escherichia coli [2]): 24 mm
Critical concentrations (mg/L) R> (Escherichia coli [2]): 2 mg/L
Critical concentrations (mg/L) S≤ (Escherichia coli [2]): 1 mg/L

CC1(C)S[C@@H]2[C@H](NC(=O)[C@H](N)c3ccc(O)cc3)C(=O)N2[C@H]1C(=O)O [AMX, amoxicillin]
resistance (I, R) or sensitivity (S) (Entercoccus faecalis; E. faecalis phenotype Atypical): R
resistance (I, R) or sensitivity (S) (Entercoccus faecalis; E. faecalis phenotype Wild): S
synergy zone between two antibiotic wafers placed side by side (Escherichia coli [3]; E. coli cephalosporinase phenotype (FIGS. 2D, 2E)): absence of a zone of synergy
synergy zone between two antibiotic wafers placed side by side (Escherichia coli [3]; E. coli strain of BSBL phenotype, champagne-cork shaped inhibition zone): presence of a zone of synergy
resistance (I, R) or sensitivity (S) (Escherichia coli [3]; E. coli phenotype BSBL, six wafers): R
resistance (I, R) or sensitivity (S) (Escherichia coli [3]; E. coli phenotype Carbapenemase, six wafers): R
resistance (I, R) or sensitivity (S) (Escherichia coli [3]; E. coli phenotype Hl cephalosporinase, six wafers): R
resistance (I, R) or sensitivity (S) (Escherichia coli [3]; E. coli phenotype Hl penicillinase, six wafers): R
resistance (I, R) or sensitivity (S) (Escherichia coli [3]; E. coli phenotype Inhibitor resistant penicillinase, six wafers): R
resistance (I, R) or sensitivity (S) (Escherichia coli [3]; E. coli phenotype Ll penicillinase, six wafers): R
resistance (I, R) or sensitivity (S) (Escherichia coli [3]; E. coli phenotype Wild, six wafers in a circle): S
resistant (I/R) or sensitive (S) (Escherichia coli [3]; [9]): R
resistant (I/R) or sensitive (S) (Escherichia coli [3]; [10]): R
resistant (I/R) or sensitive (S) (Escherichia coli [3]; [11]): S
resistance (I, R) or sensitivity (S) (Proteus mirabilis; P. mirabilis phenotype Hl cephalosporinase): R
resistance (I, R) or sensitivity (S) (Proteus mirabilis; P. mirabilis phenotype Hl penicillinase): R
resistance (I, R) or sensitivity (S) (Proteus mirabilis; P. mirabilis phenotype Inhibitor resistant penicillinase): R
resistance (I, R) or sensitivity (S) (Proteus mirabilis; P. mirabilis phenotype Ll penicillinase): R
resistance (I, R) or sensitivity (S) (Proteus mirabilis; P. mirabilis phenotype Wild): S
resistant (I/R) or sensitive (S) (Klebsiella pneumoniae; [12]): R
resistant (I/R) or sensitive (S) (Klebsiella pneumoniae; K. pneumoniae phenotype Wild): R

CC1(C)S[C@@H]2[C@H](NC(=O)[C@H](C(=O)O)c3ccsc3)C(=O)N2[C@H]1C(=O)O [TIC, ticarcillin]
resistant (I/R) or sensitive (S) (Escherichia coli [3]; [9]): R
resistant (I/R) or sensitive (S) (Escherichia coli [3]; [10]): R
resistant (I/R) or sensitive (S) (Escherichia coli [3]; [11]): S
resistance (I, R) or sensitivity (S) (Pseudomonas aeruginosa; [5]): R
resistance (I, R) or sensitivity (S) (Pseudomonas aeruginosa; P. aeruginosa phenotype BSBL): I/R
resistance (I, R) or sensitivity (S) (Pseudomonas aeruginosa; [6]): R
resistance (I, R) or sensitivity (S) (Pseudomonas aeruginosa; [7]): R
resistance (I, R) or sensitivity (S) (Pseudomonas aeruginosa; [8]): S
resistance (I, R) or sensitivity (S) (Pseudomonas aeruginosa; P. aeruginosa phenotype Wild): S
resistant (I/R) or sensitive (S) (Klebsiella pneumoniae; [12]): R
resistant (I/R) or sensitive (S) (Klebsiella pneumoniae; K. pneumoniae phenotype Wild): R
